Where “and” joins values, the source holds several entries; their conditions need not be identical. Identical values can stand only once. Toxic doses and inconclusive results are not listed.

From PubChem BioAssay AID276 (DTP/NCI, 2004) come the findings set out here.

The assay has as its system B6C3F1 mice, Lewis lung carcinoma iv, survival T/C. In words: NCI In Vivo Anticancer Drug Screen. Data for tumor model Lewis Lung Carcinoma (intravenous) in B6C3F1 mice. Particulars: endpoint: median survival time, schedule: Q01DX009 (ip), higher = longer survival. The method in brief:
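Tumors were transplanted into mice, which were then dosed with compound or vehicle. Survival was recorded in each group, and the treated figure was divided by the control figure.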

[1] abbreviates: dose: 0.75 mg/kg/injection, vehicle: saline.
Where [2] appears, read: dose: 3.0 mg/kg/injection, vehicle: saline.
Setting [3] is: dose: 25.0 mg/kg/injection, vehicle: Klucel (hydroxypropylcellulose) (HPC).
The mark [4] stands for this setting: dose: 50.0 mg/kg/injection, vehicle: Klucel (hydroxypropylcellulose) (HPC).
Setting [5] is: dose: 100.0 mg/kg/injection, vehicle: Klucel (hydroxypropylcellulose) (HPC).
Setting [6] is: dose: 200.0 mg/kg/injection, vehicle: Klucel (hydroxypropylcellulose) (HPC).
Setting [7] is: dose: 12.5 mg/kg/injection, vehicle: Klucel (hydroxypropylcellulose) (HPC).
Where [8] appears, read: dose: 5.0 mg/kg/injection, vehicle: saline with Tween-80.
[9] abbreviates: dose: 10.0 mg/kg/injection, vehicle: saline with Tween-80.

For the compound `C[C@@]1(CO)[C@H](O)CC[C@@]2(C)[C@H]1CC[C@H]1C[C@@H]3C[C@@]12CC[C@@]3(O)COC(=O)CN`, the T/C was 107 % of control (dose: 0.2 mg/kg/injection, vehicle: saline + alcohol); 109 % of control (dose: 0.4 mg/kg/injection, vehicle: saline + alcohol); 103 % of control (dose: 0.8 mg/kg/injection, vehicle: saline + alcohol); 103 % of control (dose: 1.6 mg/kg/injection, vehicle: saline + alcohol); 113 % of control (dose: 12.5 micrograms/kg/injection, vehicle: saline + alcohol); 120 % of control (dose: 25.0 micrograms/kg/injection, vehicle: saline + alcohol). Besides, the T/C is, setting by setting: (dose: 50.0 micrograms/kg/injection, vehicle: saline + alcohol) 102 % of control; (dose: 100.0 micrograms/kg/injection, vehicle: saline + alcohol) 95 % of control; (dose: 200.0 micrograms/kg/injection, vehicle: saline + alcohol) 98 % of control.

On to `[Cl][Pt+2][Cl].[NH-]C1CCC1.[NH2-]`, for which the T/C under setting [1] is 101 % of control; the T/C under setting [2] is 111 % of control; the T/C (dose: 6.0 mg/kg/injection, vehicle: saline) is 124 % of control.

In the case of `Clc1ccc(C2SC=Cc3ccccc32)cc1` (stereo unspecified), the T/C is 115 % of control under setting [3]; 114 % of control under setting [4]; 110 % of control under setting [5]; 107 % of control under setting [6]; 105 % of control (dose: 400.0 mg/kg/injection, vehicle: Klucel (hydroxypropylcellulose) (HPC)).

For `CC[C@@]1(O)C(=O)OCc2c1cc1n(c2=O)Cc2cc3cc(O)ccc3nc2-1`, the T/C was 106 % of control (dose: 0.18 mg/kg/injection, vehicle: saline); 104 % of control (dose: 0.37 mg/kg/injection, vehicle: saline); 102 % of control under setting [1]; 103 % of control (dose: 1.5 mg/kg/injection, vehicle: saline); 110 % of control under setting [2].

As for `CCOC(=O)N1Cc2cc3cc(Cl)ccc3nc2C1`, the T/C reads like this: (dose: 7.5 mg/kg/injection, vehicle: saline with Tween-80) 100 % of control; (dose: 15.0 mg/kg/injection, vehicle: saline with Tween-80) 98 % of control; (dose: 30.0 mg/kg/injection, vehicle: saline with Tween-80) 100 % of control; (dose: 60.0 mg/kg/injection, vehicle: saline with Tween-80) 100 % of control; (dose: 120.0 mg/kg/injection, vehicle: saline with Tween-80) 105 % of control.

Turning to `NC(=O)/C=C/c1c[nH]c2nccnc12`, the T/C (dose: 1.56 mg/kg/injection, vehicle: water) was 94 % of control; the T/C (dose: 3.12 mg/kg/injection, vehicle: water) was 88 % of control; the T/C (dose: 6.25 mg/kg/injection, vehicle: water) is 92 % of control; the T/C (dose: 12.5 mg/kg/injection, vehicle: water) is 94 % of control; the T/C (dose: 25.0 mg/kg/injection, vehicle: water) is 94 % of control.

Regarding `S=C(Nc1ccc(Cl)c(Cl)c1)N1c2ccccc2-n2cccc2C1c1cccnc1` (stereo unspecified), the T/C by setting is: under setting [7], 106 % of control; under setting [3], 109 % of control; under setting [4], 98 % of control; under setting [5], 102 % of control; under setting [6], 113 % of control.

`BrCCC1(CCBr)CCCCC1`: the T/C by setting is: (dose: 50.0 mg/kg/injection, vehicle: water) 104 % of control; (dose: 100.0 mg/kg/injection, vehicle: water) 103 % of control; (dose: 200.0 mg/kg/injection, vehicle: water) 98 % of control; (dose: 400.0 mg/kg/injection, vehicle: water) 96 % of control.

`O=NN(CCCl)C(=O)NCCCl`: the T/C (dose: 1.5 mg/kg/injection, vehicle: Klucel (hydroxypropylcellulose) (HPC)) was 105 % of control; the T/C (dose: 1.5 mg/kg/injection, vehicle: saline + alcohol) was 107 % of control; the T/C (dose: 3.0 mg/kg/injection, vehicle: Klucel (hydroxypropylcellulose) (HPC)) was 120 % of control; the T/C (dose: 3.0 mg/kg/injection, vehicle: saline + alcohol) is 121 % of control; the T/C under setting [8] is 303 % of control; the T/C (dose: 6.0 mg/kg/injection, vehicle: saline + alcohol) is 152 % of control. Besides, the T/C runs as follows: under setting [9], 181 % of control; (dose: 12.0 mg/kg/injection, vehicle: Klucel (hydroxypropylcellulose) (HPC)) 114 % of control; (dose: 12.0 mg/kg/injection, vehicle: saline + alcohol) 180 % of control.

For `O=NN(CCF)C(=O)NC1CCCCC1`, the T/C was 109 % of control (dose: 2.5 mg/kg/injection, vehicle: saline with Tween-80); 107 % of control (dose: 3.12 mg/kg/injection, vehicle: Klucel (hydroxypropylcellulose) (HPC)); 109 % of control under setting [8]; 155 % of control under setting [9]; 269 % of control and 291 % of control under setting [7]; 229 % of control (dose: 20.0 mg/kg/injection, vehicle: saline with Tween-80). Under setting [3], the T/C was 227 % of control.

`COC1=C(C)C(=O)C2=C(C1=O)C1C3CC4=C(C(=O)C(OC)=C(C)C4=O)C(CNC(=O)C(C)=O)N3C(C#N)C(C2)N1C` (stereo unspecified): the T/C (dose: 0.12 mg/kg/injection, vehicle: Klucel (hydroxypropylcellulose) (HPC)) is 101 % of control; the T/C (dose: 0.25 mg/kg/injection, vehicle: Klucel (hydroxypropylcellulose) (HPC)) was 108 % of control; the T/C (dose: 0.5 mg/kg/injection, vehicle: Klucel (hydroxypropylcellulose) (HPC)) was 107 % of control; the T/C (dose: 1.0 mg/kg/injection, vehicle: Klucel (hydroxypropylcellulose) (HPC)) was 113 % of control.

With `CC1CN1P1(N2CC2C)=NP(N2CC2C)(N2CC2C)=NP(N2CC2C)(N2CC2C)=N1` (stereo unspecified), the T/C (dose: 3.12 mg/kg/injection, vehicle: saline) was 100 % of control; the T/C (dose: 6.25 mg/kg/injection, vehicle: saline) is 100 % of control; the T/C (dose: 12.5 mg/kg/injection, vehicle: saline) is 98 % of control; the T/C (dose: 25.0 mg/kg/injection, vehicle: saline) was 97 % of control; the T/C (dose: 50.0 mg/kg/injection, vehicle: saline) was 90 % of control.

Take `CC(=O)OC1=NC(C)c2c1cc(OC(C)=O)[nH]c2=O` (stereo unspecified): the T/C under setting [7] is 102 % of control, the T/C under setting [3] is 98 % of control and the T/C under setting [4] is 95 % of control.

Regarding `O=NN(CCCl)C(=O)NC1OC(CO)C(O)C(O)C1O` (stereo unspecified), the T/C (dose: 2.0 mg/kg/injection, vehicle: saline) was 121 % of control.

For the compound `CC1=CC(C)(C)Nc2ccc(CSc3ccccc3)cc21`, the T/C was 99 % of control (dose: 12.5 mg/kg/injection, vehicle: saline + Tween-80 + alcohol); 108 % of control (dose: 25.0 mg/kg/injection, vehicle: saline + Tween-80 + alcohol); 100 % of control (dose: 50.0 mg/kg/injection, vehicle: saline + Tween-80 + alcohol); 101 % of control (dose: 100.0 mg/kg/injection, vehicle: saline + Tween-80 + alcohol); 108 % of control (dose: 200.0 mg/kg/injection, vehicle: saline + Tween-80 + alcohol); 108 % of control (dose: 400.0 mg/kg/injection, vehicle: saline + Tween-80 + alcohol).
